Results on 21 compounds are retold here after ChEMBL document CHEMBL5150068, “Structure-Based Design of Tropane Derivatives as a Novel Series of CCR5 Antagonists with Broad-Spectrum Anti-HIV-1 Activities and Improved Oral Bioavailability” (J Med Chem, 2022).

Molecules are shown by their SMILES. Where “and” joins values, the source holds several entries; their conditions need not be identical. Equal values may be shown once.

Data set [1] addresses C-C chemokine receptor type 5 (Homo sapiens, UniProt P51681). Kind of data set: Antagonist activity at CCR5 (unknown origin) expressed in HEK293 cells co-expressing Galpha16 assessed as intracellular calcium change incubated for 15 mins by Fluo-4 AM calcium flux assay. Format: functional, cell-based. (In general: A change in cytosolic calcium serves as a functional read-out for many receptors and channels.)

Data set [2] has as its system Human immunodeficiency virus 1. Kind of data set: Antiviral activity against HIV-1 SF162 infected in human TZM-bl cells measured after 48 hrs incubation by luciferase based analysis. Format: functional, organism-based. To be noted: Human immunodeficiency virus 1, SF162, TZM-bl.
Data set [3] in a line: Cytotoxicity against human TZM-bl cells incubated for 48 hrs by MTT assay. Format: toxicity, cell-based.
In data set [4] the test system is Human immunodeficiency virus 1. Nature of the data set: Antiviral activity against HIV-1 Ba-L infected in human TZM-bl cells measured after 48 hrs incubation by luciferase based analysis. Format: functional, organism-based. To be noted: Human immunodeficiency virus 1, Ba-L.
The nature of data set [5]: in vitro. To be noted: human, TZM-bl cells.
Description: Therapeutic index, ratio of CC50 for human TZM-bl cells to EC50 for antiviral activity against HIV-1 Ba-L
In data set [6] the test system is Human immunodeficiency virus 1. Kind of data set: Antiviral activity against HIV-1 YU-2 (G140S/Q148H) infected in human TZM-bl cells measured after 48 hrs incubation by luciferase based analysis. To be noted: Human immunodeficiency virus 1, YU-2 (G140S/Q148H). It is filed as functional, organism-based.
The subject of data set [7] is Human immunodeficiency virus 1. Kind of data set: Antiviral activity against HIV-1 IIIB infected in human TZM-bl cells measured after 48 hrs incubation by luciferase based analysis. Format: functional, organism-based. To be noted: Human immunodeficiency virus 1, IIIB.
Data set [8] has as its system Human immunodeficiency virus 1. Nature of the data set: Antiviral activity against HIV-1 KIZ001 clinical isolate infected in human PBMC measured after 48 hrs incubation by luciferase based analysis. It is filed as functional, organism-based. Particulars: Human immunodeficiency virus 1, KIZ001, PBMC.
Data set [9] concerns Human immunodeficiency virus 1. Nature of the data set: Antiviral activity against HIV-1 Ba-L infected in human PM1 cells measured after 48 hrs incubation by ELISA based p24 antigen assay. It is filed as functional, organism-based. Particulars: Human immunodeficiency virus 1, Ba-L, PM1, 48 h.
Data set [10] deals with Human immunodeficiency virus 1. Nature of the data set: Antiviral activity against HIV-1 KM018 clinical isolate infected in human PBMC measured after 48 hrs incubation by luciferase based analysis. It is filed as functional, organism-based. To be noted: Human immunodeficiency virus 1, KM018, PBMC.
Data set [11] concerns Human immunodeficiency virus 1. Kind of data set: Antiviral activity against HIV-1 Ba-L infected in human HOS-CD4-CCR5 cells measured after 48 hrs incubation by ELISA based p24 antigen assay. It is filed as functional, organism-based. Particulars: Human immunodeficiency virus 1, Ba-L.
Data set [12] relates to Human immunodeficiency virus 1. Kind of data set: Antiviral activity against HIV-1 YU-2 infected in human TZM-bl cells measured after 48 hrs incubation by luciferase based analysis. It is filed as functional, organism-based.
The test system of data set [13] is Human immunodeficiency virus 1. Kind of data set: Antiviral activity against HIV-1 KIZ006 clinical isolate infected in human PBMC measured after 48 hrs incubation by luciferase based analysis. It is filed as functional, organism-based. To be noted: Human immunodeficiency virus 1, KIZ006, PBMC.
[14] abbreviates: Human immunodeficiency virus 1, YU-2, TZM-bl, 48 h.

Sequence of C-C chemokine receptor type 5 (P51681 whole entry): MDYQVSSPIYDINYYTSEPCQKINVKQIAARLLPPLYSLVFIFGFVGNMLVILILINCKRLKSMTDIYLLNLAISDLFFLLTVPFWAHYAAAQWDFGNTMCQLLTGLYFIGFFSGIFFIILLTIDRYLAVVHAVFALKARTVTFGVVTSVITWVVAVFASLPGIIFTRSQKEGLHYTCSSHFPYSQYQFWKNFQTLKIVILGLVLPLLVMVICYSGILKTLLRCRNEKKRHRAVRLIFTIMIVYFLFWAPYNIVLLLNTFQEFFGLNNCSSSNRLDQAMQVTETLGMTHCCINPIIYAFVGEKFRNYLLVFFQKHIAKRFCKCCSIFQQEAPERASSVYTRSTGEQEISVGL

For the compound `Cc1nnc(C(C)C)n1[C@@H]1C[C@H]2CC[C@@H](C1)N2CC[C@H](NC(=O)C(F)(F)F)c1csc2ccccc12`, the IC50 – broadly, the concentration that inhibits the measured activity by half – in data set [1] turned out to be 680 nM. Further, the EC50 (commonly the concentration that produces a half-maximal response) in [2] is more than 40000 nM. The CC50 – broadly, the concentration giving 50% cytotoxicity – at 48 h in [3] was more than 200000 nM.

With `Cc1ccc([C@H](CCN2[C@@H]3CC[C@H]2C[C@H](n2c(C)nnc2C(C)C)C3)NC(=O)Cn2cnnn2)s1`, in data set [1], the 50% inhibitory concentration (IC50) came out at 45.1 nM. Further, the half-maximal cytotoxic concentration (CC50) at 48 h in data set [3] is more than 200000 nM. Moreover, the EC50 in data set [4] is more than 50000 nM.

`CC(=O)N[C@@H](CCN1[C@@H]2CC[C@H]1C[C@H](n1c(C)nnc1C(C)C)C2)c1cccs1`: in data set [1], the 50% inhibitory concentration (IC50) stood at 15 nM. For the same compound, the EC50 in data set [2] came to 1100 nM. In addition, in [3], the CC50 at 48 h was determined as 40500 nM. Also, the selectivity ratio in data set [5] worked out at 36.8.

For `CC(=O)N[C@@H](CCN1C2CCC1CC(n1c(C)nc3c1CCN(C(=O)C(C)C)C3)C2)c1cccc(F)c1` (stereo partly specified), in data set [1], the IC50 was 18.9 nM. Moreover, in data set [6], the EC50 is 2.3 nM.

With `Cc1nnc(C(C)C)n1[C@H]1C[C@H]2CC[C@@H](C1)N2CC[C@H](NC(=O)C1CCCCC1)c1ccc(C#N)s1`, the IC50 in data set [1] is more than 10000 nM. Also, in [3], the CC50 at 48 h was more than 200000 nM. The compound also gave an EC50 in data set [4] of more than 200000 nM.

`Cc1nnc(C(C)C)n1[C@@H]1C[C@H]2CC[C@@H](C1)N2CC[C@H](NC(=O)C1CCCC1)c1ccc(C#N)s1`: the IC50 in data set [1] is more than 10000 nM. Besides, the CC50 at 48 h in [3] was more than 200000 nM. The compound further registered an EC50 in [4] of more than 200000 nM.

Take `Cc1nnc(C(C)C)n1[C@H]1C[C@H]2CC[C@@H](C1)N2CC[C@H](NC(=O)C1CCC(F)(F)CC1)c1ccccc1` [MARAVIROC]: the EC50 was 19.2 nM in data set [2]; more than 1000 nM in [7]; 14.9 nM in data set [8]; 0.34 nM in [9]; 2.18 nM in data set [6]; 10.2 nM in data set [10]. In addition, the EC50 is 1.04 nM in [11], 2.96 nM in [12] (setting [14]), 92 nM in data set [13] and 15 nM in data set [4].

For the compound `CNS(=O)(=O)c1cccc(C(=O)N[C@@H](CCN2[C@@H]3CC[C@H]2C[C@H](n2c(C)nnc2C(C)C)C3)c2cccs2)c1`, the IC50 in data set [1] was 31.9 nM. Besides, the CC50 at 48 h in data set [3] is more than 200000 nM. In data set [5], the selectivity ratio is more than 43.2. The compound also registered a concentration for a half-maximal effect (EC50) in data set [4] of 4630 nM.

As to `Cc1ccc([C@H](CCN2[C@@H]3CC[C@H]2C[C@H](n2c(C)nnc2C(C)C)C3)NC(=O)CC#N)s1`, the IC50 in data set [1] was determined as 72.7 nM. The CC50 at 48 h in [3] was more than 200000 nM. In data set [4], the EC50 was more than 50000 nM.

As for `Cc1ccc([C@H](CCN2[C@@H]3CC[C@H]2C[C@H](n2c(C)nnc2C(C)C)C3)NC(=O)C2CCN(S(C)(=O)=O)CC2)s1`, the IC50 in data set [1] was 7.99 nM. In data set [3], this compound registered a CC50 at 48 h of more than 200000 nM. Besides, the selectivity ratio in data set [5] was more than 44. The compound further displayed an EC50 in [4] of 4540 nM.

As for `CC(=O)Nc1cccc(C(=O)N[C@@H](CCN2[C@@H]3CC[C@H]2C[C@H](n2c(C)nnc2C(C)C)C3)c2cccs2)c1`, the IC50 in data set [1] is 40.4 nM. In addition, in data set [3], the CC50 at 48 h is more than 200000 nM. The selectivity ratio in data set [5] was more than 59. In [4], this compound registered a 50% effective concentration (EC50) of 3390 nM.

On to `Cc1nnc(C(C)C)n1[C@@H]1C[C@H]2CC[C@@H](C1)N2CC[C@H](NC(=O)C1CCC(F)(F)CC1)c1ccc(C#N)s1`, for which the IC50 in data set [1] was more than 10000 nM. The half-maximal cytotoxic concentration (CC50) at 48 h in data set [3] is more than 200000 nM. In addition, in data set [4], the EC50 is more than 200000 nM.

In the case of `Cc1nnc(C(C)C)n1[C@@H]1C[C@H]2CC[C@@H](C1)N2CC[C@H](NC(=O)C1CCCCC1)c1ccc(F)s1`, in data set [1], the IC50 was 9.33 nM. Also, the midpoint of the response in [2], the EC50, lay at 2660 nM. In addition, in data set [3], the CC50 at 48 h is more than 200000 nM. Moreover, the selectivity ratio in data set [5] is more than 75.2.

As to `COCc1nnc(C(C)C)n1[C@@H]1C[C@H]2CC[C@@H](C1)N2CC[C@H](NC(=O)C1CCC(F)(F)CC1)c1ccsc1`, the IC50 in data set [1] was determined as 2.49 nM. Further, the CC50 at 48 h in data set [3] is 72900 nM. The selectivity ratio in data set [5] was found to be 2430. Moreover, the EC50 in [4] came out at 30 nM.

Turning to `COC(=O)C1CCC(C(=O)N[C@@H](CCN2[C@@H]3CC[C@H]2C[C@H](n2c(C)nnc2C(C)C)C3)c2cccs2)CC1` (stereo partly specified), the IC50 in [1] was 11.8 nM. This compound also registered a CC50 at 48 h in data set [3] of more than 200000 nM. In data set [12] (setting [14]), this compound yielded an EC50 of 9 nM. Besides, the selectivity ratio in [5] was more than 22200.

Consider `Cc1nnc(C(C)C)n1[C@@H]1C[C@H]2CC[C@@H](C1)N2CC[C@H](NC(=O)C1CCCC1)c1ccsc1Cl`, for which, in data set [1], the IC50 amounted to 4.36 nM. Besides, in data set [3], the CC50 at 48 h was more than 200000 nM. The selectivity ratio in data set [5] was more than 219. In addition, in [4], a half-maximal effect (EC50) was put at 910 nM.

With `Cc1csc([C@H](CCN2[C@@H]3CC[C@H]2C[C@H](n2c(C)nnc2C(C)C)C3)NC(=O)C2CCN(S(C)(=O)=O)CC2)c1`, the IC50 in data set [1] amounted to 21.5 nM. In data set [3], this compound showed a CC50 at 48 h of more than 200000 nM. Also, the EC50 in [12] (setting [14]) was 19 nM. In addition, in data set [5], the selectivity ratio is more than 10500.

In the case of `Cc1ccsc1[C@H](CCN1[C@@H]2CC[C@H]1C[C@H](n1c(C)nnc1C(C)C)C2)NC(=O)C1CCCC1`, in data set [1], the IC50 was 18.9 nM. Further, the CC50 at 48 h in [3] is more than 200000 nM. The EC50 in [12] (tzm-bl) was 29 nM and 78 nM. Moreover, the selectivity ratio in [5] was more than 6900.

Take `Cc1nnc(C(C)C)n1[C@@H]1C[C@H]2CC[C@@H](C1)N2CC[C@H](NC(=O)C1CCC(F)(F)CC1)c1cscn1`: the IC50 in data set [1] turned out to be 67.4 nM. The compound further came in with a CC50 at 48 h in data set [3] of more than 200000 nM. The selectivity ratio in data set [5] was 2560. Further, the EC50 in [4] came out at 78 nM.

For the compound `COc1ccc(S(N)(=O)=O)cc1C(=O)N[C@@H](CCN1[C@@H]2CC[C@H]1C[C@H](n1c(C)nnc1C(C)C)C2)c1cccs1`, in data set [1], the IC50 worked out at 1380 nM. Besides, in [3], the CC50 at 48 h was more than 200000 nM. Moreover, the EC50 in data set [4] is more than 200000 nM.

Turning to `Cc1nnc(C(C)C)n1[C@@H]1C[C@H]2CC[C@@H](C1)N2CC[C@H](NC(=O)C1CCC(F)(F)CC1)c1ccsc1Cl`, in data set [1], the IC50 was 5.34 nM. The CC50 at 48 h in [3] is more than 200000 nM. The selectivity ratio in [5] is more than 370. Moreover, the 50% effective concentration (EC50) in [4] came out at 540 nM.
